Patent US6169116A, “Amino-tetralines, pharmaceutical compositions containing them and their pharmaceutical uses” (Novartis AG, priority 1995, dated 2001)

Key:
[1] = target: veratridine-sensitive sodium channel; experiment: binding to the veratridine-sensitive sodium channel; conditions: read-out: IC50, affinity for the veratridine binding site
Method: (§1) The agents of the invention display binding to the veratridine-sensitive sodium channel with IC50 S of from about 0.1 to about 100 μM. For the binding procedure see for example J. B. Brown, Journal of Neuroscience 6, 2064-2070 (1986). They block veratridine-induced glutamate release in rat hippocampal slice preparations at concentrations of about 0.1-1 μM.

[2] = tested on: veratridine-induced glutamate release in rat hippocampal slice preparations; experiment: veratridine-induced glutamate release in rat hippocampal slice preparations; assay type: cell-based; conditions: for IC50: Rattus norvegicus, read-out: IC50, block of veratridine-induced glutamate release
Method: as §1
The experiment is performed according to a modification of M. J. Leach et al. in Epilepsia 27, 490-497 (1986) and Stroke 24, 1063-1067 (1993), using exogenous glutamate.

[3] = tested on: ischemia-induced neuronal damage (infarct size); experiment: middle cerebral artery (MCA) occlusion model in rats; assay type: in vivo
Method: Furthermore, the agents of the invention reduce ischemia-induced neuronal damage and ensuing symptoms in the middle cerebral artery (MCA) occlusion model in rats at a dosage of 1-30 mg/kg i.p, i.v. and p.o. [cf. A. Tamura et al., J. Cereb. Blood Flow Metabol. 1, 53-60 (1981)), A. Sauter, M. Rudin, Stroke 17, 1228-1234 (1986)].
(§2) For all these indications the preferred compound is (R)-1,2,3,4-tetrahydro-8-methoxy-N,N-dimethyl-5-[4-(trifluoromethyl)phenyl]-2-naphthaleneamine, which is the compound of example 21. It has for example been determined that in the above mentioned electroshock model, this compound provides protection against maximal electroshock-induced convulsions with a threshold dose of 10 mg/kg p.o. for periods up to 8 hours post-administration.

[4] = tested on: maximal electroshock-induced convulsions; experiment: protection against maximal electroshock-induced convulsions in mice; assay type: in vivo
Method: The agents of the invention provide long-lasting protection against maximal electroshock-induced convulsions in mice at doses of about 1 to 100 mg/kg p.o. and about 0.32 to 32 mg/kg i.p. [cf. E. A. Swinyard, J. Am. Pharm. Assoc. Scient. Ed. 38, 201 (1949) and J. Pharmacol. Exptl. Therap. 106, 319 (1952)].
as §2

[5] = 10 mg/kg i.p., immediately after occlusion

Which IC50 [1] does the source give for COc1ccc(-c2ccc(C(F)(F)F)cc2)c2c1C[C@H](N(C)C)CC2 [Example 21, (R)-1,2,3,4-tetrahydro-8-methoxy-N,N-dimethyl-5-[4-(trifluoromethyl)phenyl]-2-naphthaleneamine] here?
The IC50 was 125 nM.

What about the IC50 [2] of the same molecule?
Its IC50 is 500 nM.

What about the “potency relative to Lifarizine in the veratridine-induced glutamate release test” value ([2]; compared with Lifarizine) of the same molecule?
The value was “about equipotent to Lifarizine”.

What about the infarct size reduction ([3]; 3.2 mg/kg i.p. immediately after occlusion) of the same molecule?
Its infarct size reduction is 19%.

And the infarct size reduction [3, 5]?
The infarct size reduction was 43%.

And the infarct size reduction ([3]; 32 mg/kg i.p. immediately after occlusion)?
The infarct size reduction was 53%.

And the minimal effective dose ([4]; Mus musculus, po, read-out: threshold dose for protection against maximal electroshock-induced convulsions)?
The minimal effective dose was 10 mg/kg.

And the “period of protection against maximal electroshock-induced convulsions post-administration” value ([4]; p.o., threshold dose 10 mg/kg)?
Its value is “up to 8 hours”.

With Nc1nnc(-c2cccc(Cl)c2Cl)c(N)n1 [Lamotrigine, reference compound] as the molecule, how does the IC50 [2] read?
The IC50 was 20000 nM.

Cc1ccc(-c2nc(C)c(CN3CCN(C(c4ccccc4)c4ccccc4)CC3)[nH]2)cc1 [Lifarizine, reference compound] was tested. Which infarct size reduction [3, 5] did it give?
The infarct size reduction was 25%.

For Nc1nc2ccc(OC(F)(F)F)cc2s1 [Riluzole, reference compound], which IC50 [2] is on record?
The IC50 was 5000 nM.
